# From BindingDB's records for doi:10.1021/acsmedchemlett.0c00015 (The Genomics Institute of The Novartis Research Foundation, 2020)
# Columns and labels:
# [1] = Inhibition of KIF5B-RET (unknown origin) transfected in mouse Ba/F3 cells assessed as reduction in cell viability incubated for 48 hrs by brightglo-luciferase reporter gene assay
# [2] = Inhibition of CCDC6/RET (unknown origin) transfected in human LC2/ad cells assessed as reduction in cell viability incubated for 6 days by CellTiter Glo assay
# [3] = Inhibition of TEL/KDR (unknown origin) transfected in mouse Ba/F3 cells assessed as reduction in cell viability incubated for 48 hrs by brightglo-luciferase reporter gene assay
# [4] = Inhibition of TYRO3 (unknown origin) transfected in mouse Ba/F3 cells assessed as reduction in cell viability incubated for 48 hrs by brightglo-luciferase reporter gene assay
# [5] = Inhibition of KDR (unknown origin) transfected in mouse Ba/F3 cells assessed as reduction in cell viability incubated for 48 hrs by brightglo-luciferase reporter gene assay
# [6] = Inhibition of BLK (unknown origin) transfected in mouse Ba/F3 cells assessed as reduction in cell viability incubated for 48 hrs by brightglo-luciferase reporter gene assay
# [7] = Inhibition of NPM/ALK (unknown origin) transfected in mouse Ba/F3 cells assessed as reduction in cell viability incubated for 48 hrs by brightglo-luciferase reporter gene assay
# [8] = Inhibition of TRKB (unknown origin) transfected in mouse Ba/F3 cells assessed as reduction in cell viability incubated for 48 hrs by brightglo-luciferase reporter gene assay
# [9] = Inhibition of RET (unknown origin) transfected in mouse Ba/F3 cells assessed as reduction in cell viability incubated for 48 hrs by brightglo-luciferase reporter gene assay
# [10] = Inhibition of PDGFRbeta (unknown origin) transfected in mouse Ba/F3 cells assessed as reduction in cell viability incubated for 48 hrs by brightglo-luciferase reporter gene assay
# [11] = Inhibition of FGR (unknown origin) transfected in mouse Ba/F3 cells assessed as reduction in cell viability incubated for 48 hrs by brightglo-luciferase reporter gene assay
# [12] = Inhibition of MET (unknown origin) transfected in mouse Ba/F3 cells assessed as reduction in cell viability incubated for 48 hrs by brightglo-luciferase reporter gene assay
# [13] = Inhibition of IGF1R (unknown origin) transfected in mouse Ba/F3 cells assessed as reduction in cell viability incubated for 48 hrs by brightglo-luciferase reporter gene assay
# [14] = Inhibition of BMX (unknown origin) transfected in mouse Ba/F3 cells assessed as reduction in cell viability incubated for 48 hrs by brightglo-luciferase reporter gene assay
# [15] = Inhibition of TRKC (unknown origin) transfected in mouse Ba/F3 cells assessed as reduction in cell viability incubated for 48 hrs by brightglo-luciferase reporter gene assay
# [16] = Inhibition of FGFR2 (unknown origin) transfected in mouse Ba/F3 cells assessed as reduction in cell viability incubated for 48 hrs by brightglo-luciferase reporter gene assay
# [17] = Inhibition of FGFR1 (unknown origin) transfected in mouse Ba/F3 cells assessed as reduction in cell viability incubated for 48 hrs by brightglo-luciferase reporter gene assay
# [18] = Inhibition of LCK (unknown origin) transfected in mouse Ba/F3 cells assessed as reduction in cell viability incubated for 48 hrs by brightglo-luciferase reporter gene assay
# [19] = Inhibition of KIF5B-RET V804M mutant (unknown origin) transfected in mouse Ba/F3 cells assessed as reduction in cell viability incubated for 48 hrs by brightglo-luciferase reporter gene assay
# [20] = Inhibition of SRC (unknown origin) transfected in mouse Ba/F3 cells assessed as reduction in cell viability incubated for 48 hrs by brightglo-luciferase reporter gene assay
# [21] = Inhibition of LYN (unknown origin) transfected in mouse Ba/F3 cells assessed as reduction in cell viability incubated for 48 hrs by brightglo-luciferase reporter gene assay
# [22] = Inhibition of FGFR3 (unknown origin) transfected in mouse Ba/F3 cells assessed as reduction in cell viability incubated for 48 hrs by brightglo-luciferase reporter gene assay
# [23] = Inhibition of FGFR4 (unknown origin) transfected in mouse Ba/F3 cells assessed as reduction in cell viability incubated for 48 hrs by brightglo-luciferase reporter gene assay
# [24] = Inhibition of JAK2 (unknown origin) transfected in mouse Ba/F3 cells assessed as reduction in cell viability incubated for 48 hrs by brightglo-luciferase reporter gene assay
# [25] = Inhibition of MER (unknown origin) transfected in mouse Ba/F3 cells assessed as reduction in cell viability incubated for 48 hrs by brightglo-luciferase reporter gene assay
# [26] = Inhibition of FMS (unknown origin) transfected in mouse Ba/F3 cells assessed as reduction in cell viability incubated for 48 hrs by brightglo-luciferase reporter gene assay
# [27] = Inhibition of FLT1 (unknown origin) transfected in mouse Ba/F3 cells assessed as reduction in cell viability incubated for 48 hrs by brightglo-luciferase reporter gene assay
# [28] = Inhibition of TIE1 (unknown origin) transfected in mouse Ba/F3 cells assessed as reduction in cell viability incubated for 48 hrs by brightglo-luciferase reporter gene assay
# [29] = Inhibition of PDGFRalpha (unknown origin) transfected in mouse Ba/F3 cells assessed as reduction in cell viability incubated for 48 hrs by brightglo-luciferase reporter gene assay
# [30] = Inhibition of ZAP70 (unknown origin) transfected in mouse Ba/F3 cells assessed as reduction in cell viability incubated for 48 hrs by brightglo-luciferase reporter gene assay
# [31] = Inhibition of SYK (unknown origin) transfected in mouse Ba/F3 cells assessed as reduction in cell viability incubated for 48 hrs by brightglo-luciferase reporter gene assay
# [32] = Inhibition of INSR (unknown origin) transfected in mouse Ba/F3 cells assessed as reduction in cell viability incubated for 48 hrs by brightglo-luciferase reporter gene assay
# [33] = Inhibition of FLT3 (unknown origin) transfected in mouse Ba/F3 cells assessed as reduction in cell viability incubated for 48 hrs by brightglo-luciferase reporter gene assay
# [34] = Inhibition of KIT (unknown origin) transfected in mouse Ba/F3 cells assessed as reduction in cell viability incubated for 48 hrs by brightglo-luciferase reporter gene assay
# [35] = Inhibition of TRKA (unknown origin) transfected in mouse Ba/F3 cells assessed as reduction in cell viability incubated for 48 hrs by brightglo-luciferase reporter gene assay
# [36] = Inhibition of RON (unknown origin) transfected in mouse Ba/F3 cells assessed as reduction in cell viability incubated for 48 hrs by brightglo-luciferase reporter gene assay
# [37] = Inhibition of ROS (unknown origin) transfected in mouse Ba/F3 cells assessed as reduction in cell viability incubated for 48 hrs by brightglo-luciferase reporter gene assay
smiles,measurement,setting,value
CN1C(C)(C)CC(Nc2nc3c(-c4ccc(C(=O)N5CCN(S(C)(=O)=O)CC5)cc4)cnn3c(N)c2-c2ccccc2)CC1(C)C,IC50,[1],6.3 nM
same,IC50,[2],6.2 nM
same,IC50,[3],1100 nM
COc1ccc(-c2cnn3c(N)c(-c4ccccc4)c(OCCCN(C)C)nc23)cc1OC,IC50,[1],70 nM
same,IC50,[3],3000 nM
COc1ccc(-c2cnn3c(N)c(-c4ccccc4)c(NC4CC(C)(C)N(C)C(C)(C)C4)nc23)cc1OC,IC50,[1],1.7 nM
same,IC50,[2],5.3 nM
same,IC50,[3],990 nM
COc1ccc(-c2cnn3c(N)c(-c4nccs4)c(OC4CCN(C)CC4)nc23)cc1OC,IC50,[4],> 11000 nM
same,IC50,[5],240 nM
same,IC50,[6],8200 nM
same,IC50,[7],> 11000 nM
same,IC50,[8],770 nM
same,IC50,[9],210 nM
same,IC50,[1],120 nM
same,IC50,[10],41 nM
same,IC50,[11],4100 nM
same,IC50,[12],> 11000 nM
same,IC50,[13],8700 nM
same,IC50,[14],> 11000 nM
same,IC50,[15],500 nM
same,IC50,[16],3000 nM
same,IC50,[17],3100 nM
same,IC50,[18],1200 nM
same,IC50,[19],610 nM
same,IC50,[20],2400 nM
same,IC50,[21],1500 nM
same,IC50,[22],4900 nM
same,IC50,[23],4400 nM
same,IC50,[24],3800 nM
same,IC50,[25],> 8700 nM
same,IC50,[26],4300 nM
same,IC50,[27],> 11000 nM
same,IC50,[28],> 11000 nM
same,IC50,[29],9 nM
same,IC50,[30],> 11000 nM
same,IC50,[31],> 11000 nM
same,IC50,[32],> 10000 nM
same,IC50,[33],> 11000 nM
same,IC50,[34],1600 nM
same,IC50,[35],> 11000 nM
same,IC50,[36],> 11000 nM
same,IC50,[37],> 11000 nM
COc1ccc(-c2cnn3c(N)c(-c4ccccc4)c(OC4CCNCC4)nc23)cc1OC,IC50,[1],79 nM
same,IC50,[2],160 nM
same,IC50,[3],3600 nM
COc1ccc(-c2cnn3c(N)c(-c4ccccc4)c(NCCCN(C)C)nc23)cc1OC,IC50,[1],56 nM
same,IC50,[3],> 7900 nM
COc1ccc(-c2cnn3c(N)c(-c4ccccc4)c(NC4CCN(C)CC4)nc23)cc1OC,IC50,[1],31 nM
same,IC50,[2],56 nM
same,IC50,[3],3100 nM
COc1ccc(-c2cnn3c(N)c(-c4ccccc4)c(OC4CCN(C)CC4)nc23)cc1OC,IC50,[4],> 11000 nM
same,IC50,[5],> 11000 nM
same,IC50,[6],520 nM
same,IC50,[7],8300 nM
same,IC50,[8],> 11000 nM
same,IC50,[9],170 nM
same,IC50,[1],37 nM
same,IC50,[10],100 nM
same,IC50,[11],98 nM
same,IC50,[12],> 11000 nM
same,IC50,[13],> 11000 nM
same,IC50,[2],95 nM
same,IC50,[14],> 11000 nM
same,IC50,[15],> 11000 nM
same,IC50,[16],3700 nM
same,IC50,[17],> 5600 nM
same,IC50,[18],110 nM
same,IC50,[19],1800 nM
same,IC50,[3],1400 nM
same,IC50,[20],120 nM
same,IC50,[21],410 nM
same,IC50,[22],> 9800 nM
same,IC50,[23],> 11000 nM
same,IC50,[24],> 1300 nM
same,IC50,[25],> 11000 nM
same,IC50,[26],400 nM
same,IC50,[27],> 11000 nM
same,IC50,[28],> 11000 nM
same,IC50,[29],93 nM
same,IC50,[30],> 11000 nM
same,IC50,[31],7600 nM
same,IC50,[32],> 11000 nM
same,IC50,[33],1700 nM
same,IC50,[35],> 11000 nM
same,IC50,[36],> 11000 nM
same,IC50,[37],> 11000 nM
COC(=O)Nc1ccc(-c2c(OC3CCN(C)CC3)nc3c(-c4ccc(OC)c(OC)c4)cnn3c2N)cc1,IC50,[4],3700 nM
same,IC50,[5],26 nM
same,IC50,[6],230 nM
same,IC50,[7],1200 nM
same,IC50,[8],2100 nM
same,IC50,[9],6 nM
same,IC50,[1],6 nM
same,IC50,[10],22 nM
same,IC50,[11],440 nM
same,IC50,[12],> 11000 nM
same,IC50,[13],> 7500 nM
same,IC50,[14],> 7400 nM
same,IC50,[15],1400 nM
same,IC50,[16],8 nM
same,IC50,[17],10 nM
same,IC50,[18],2400 nM
same,IC50,[19],19 nM
same,IC50,[21],67 nM
same,IC50,[22],430 nM
same,IC50,[23],35 nM
same,IC50,[24],84 nM
same,IC50,[25],86 nM
same,IC50,[26],82 nM
same,IC50,[27],3000 nM
same,IC50,[28],> 10000 nM
same,IC50,[29],17 nM
same,IC50,[30],9100 nM
same,IC50,[31],1400 nM
same,IC50,[32],> 9100 nM
same,IC50,[33],3400 nM
same,IC50,[34],20 nM
same,IC50,[35],2800 nM
same,IC50,[36],6000 nM
same,IC50,[37],5500 nM
CN1C(C)(C)CC(Nc2nc3c(-c4ccc(C(=O)N5C[C@@H]6C[C@H]5CO6)cc4)cnn3c(N)c2-c2ccccc2)CC1(C)C,IC50,[1],5.4 nM
same,IC50,[2],16 nM
same,IC50,[3],1300 nM
COC(=O)N1CCN(C(=O)c2ccc(-c3cnn4c(N)c(-c5ccccc5)c(NC5CC(C)(C)N(C)C(C)(C)C5)nc34)cc2)CC1,IC50,[1],3.3 nM
same,IC50,[2],15 nM
same,IC50,[3],890 nM
